Tests used:
Assay in all cases: combination Emax (second highest fraction inhibited in the dose matrix, 72 h); higher = more inhibition; extreme values may be limits of the assay
[1] = test system: BALL-1 (B-Lymphoblastic Leukemia)
Method in brief: (§1)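 Bliss excess equals the observed combination effect minus the expected value EA + EB − EA·EB, where EA and EB are the effects of each agent alone. Combination Emax is the second-highest inhibition within the matrix. Inhibition was scaled from CellTiter-Glo 2.0 luminescence, with 0 set by vehicle wells and 1 by blank wells, after 72 hours of two-drug dosing of cells plated in 1536-well plates.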

[2] = test system: PANC-02-03 (Pancreatic Carcinoma)
Method in brief: as §1

[3] = test system: KYSE-70 (Esophageal Squamous Cell Carcinoma)
Method in brief: as §1

[4] = test system: HuO-3N1 (Osteosarcoma)
Method in brief: as §1

[5] = test system: CML-T1 (Chronic Myelogenous Leukemia)
Method in brief: as §1

[6] = test system: AN3-CA (Endometrial Carcinoma)
Method in brief: as §1

[7] = test system: NCI-H1563 (Lung Adenocarcinoma)
Method in brief: as §1

[8] = test system: KYM-1 (Rhabdomyosarcoma)
Method in brief: as §1

[9] = test system: SNU-175 (Colorectal Carcinoma)
Method in brief: as §1

[10] = test system: EB-3 (Burkitt's Lymphoma)
Method in brief: as §1

[11] = test system: CHL-1 (Melanoma)
Method in brief: as §1

[12] = test system: NKM-1 (Acute Myeloid Leukemia)
Method in brief: as §1

[13] = test system: Becker (Low Grade Glioma)
Method in brief: as §1

[14] = test system: RERF-LC-KJ (Lung Adenocarcinoma)
Method in brief: as §1

[15] = test system: NCI-H196 (Small Cell Lung Carcinoma)
Method in brief: as §1

[16] = test system: RL95-2 (Endometrial Carcinoma)
Method in brief: as §1

[17] = test system: COLO-684 (Endometrial Carcinoma)
Method in brief: as §1

[18] = test system: RMG-I (Ovarian Carcinoma)
Method in brief: as §1

[19] = test system: NCI-H1623 (Lung Adenocarcinoma)
Method in brief: as §1

[20] = test system: PC-14 (Lung Adenocarcinoma)
Method in brief: as §1

| SMILES | combination Emax [1] | combination Emax [2] | combination Emax [3] | combination Emax [4] | combination Emax [5] | combination Emax [6] | combination Emax [7] | combination Emax [8] | combination Emax [9] | combination Emax [10] | combination Emax [11] | combination Emax [12] | combination Emax [13] | combination Emax [14] | combination Emax [15] | combination Emax [16] | combination Emax [17] | combination Emax [18] | combination Emax [19] | combination Emax [20] |
| --- | --- | --- | --- | --- | --- | --- | --- | --- | --- | --- | --- | --- | --- | --- | --- | --- | --- | --- | --- | --- |
| CC(=O)c1c(C)c2cnc(Nc3ccc(N4CCNCC4)cn3)nc2n(C2CCCC2)c1=O [Palbociclib] + Cn1cnc2c(F)c(Nc3ccc(Br)cc3Cl)c(C(=O)NOCCO)cc21 [Selumetinib] (first compound max 10 µM, 7x7, partner max 10 µM) | 0.458 | 0.475 | 0.182 | 0.154 | 0.926 | 0.296 | 0.261 | 0.93 | 0.549 | 0.374 | 0.101 | 0.944 | 0.368 | 0.197 | 0.0806 | 0.561 | 0.153 | 0.353 | 0.52 | 0.434 |
| Cc1c2c(nn1C)CSCc1cc(n(C)n1)CSc1cc(c3ccccc3c1)OCCCc1c(C(=O)O)n(C)c3c-2c(Cl)ccc13 [AZD5991] + C=CCn1c(=O)c2cnc(Nc3ccc(N4CCN(C)CC4)cc3)nc2n1-c1cccc(C(C)(C)O)n1 [AZD1775] (first compound max 1 µM, partner max 1 µM) | 1 | 0.594 | 0.655 | 1 | 0.938 | 0.637 | 0.595 | 0.755 | 0.868 | 0.732 | 0.745 | 0.979 | 0.224 | 0.563 | 0.508 | 1 | 0.739 | 0.375 | 0.959 | 0.921 |
| CCN(CCO)CCCOc1ccc2c(Nc3cc(CC(=O)Nc4cccc(F)c4)[nH]n3)ncnc2c1 [AZD2811] + C=CCn1c(=O)c2cnc(Nc3ccc(N4CCN(C)CC4)cc3)nc2n1-c1cccc(C(C)(C)O)n1 [AZD1775] (first compound max 1 µM, partner max 1 µM) | 0.986 | 0.538 | 0.549 | 0.233 | 0.915 | 0.308 | 0.245 | 0.401 | 0.637 | 0.62 | 0.658 | 0.879 | 0.167 | 0.312 | 0.468 | 0.662 | 0.649 | 0.256 | 0.297 | 0.842 |
| CN(CCO)CC[C@H](CSc1ccccc1)Nc1ccc(S(=O)(=O)NC(=O)c2ccc(N3CCC([C@@H](O)c4ccccc4-c4ccc(Cl)cc4)CC3)cc2)cc1S(=O)(=O)C(F)(F)F [AZD4320] + C[C@@H](Nc1cc(F)cc(F)c1)c1cc(C(=O)N(C)C)cc2c(=O)cc(N3CCOCC3)oc12 [AZD8186] (first compound max 1 µM, 7x7, partner max 3 µM) | 1 | 0.278 | 0.211 | 0.441 | 1 | 0.624 | 0.565 | 0.197 | 0.908 | 0.332 | 0.408 | 1 | 0.431 | 0.431 | 0.517 | 0.253 | 0.396 | 0.868 | 0.865 | 0.297 |
| CC1(C)CCC(CN2CCN(c3ccc(C(=O)NS(=O)(=O)c4ccc(NCC5CCOCC5)c([N+](=O)[O-])c4)c(Oc4cnc5[nH]ccc5c4)c3)CC2)=C(c2ccc(Cl)cc2)C1 [Venetoclax] + CCN(CCO)CCCOc1ccc2c(Nc3cc(CC(=O)Nc4cccc(F)c4)[nH]n3)ncnc2c1 [AZD2811] (first compound max 1 µM, 7x7, partner max 1 µM) | 1 | 0.217 | 0.224 | 0.256 | 0.991 | 0.399 | 0.193 | 0.162 | 0.912 | 0.319 | 0.531 | 1 | 0.221 | 0.298 | 0.126 | 0.593 | 0.19 | 0.302 | 0.211 | 0.312 |
| C[C@@H](c1ccc2nccn2c1)n1nnc2ncc(-c3cnn(C)c3)nc21 [Savolitinib] + Cc1c2c(nn1C)CSCc1cc(n(C)n1)CSc1cc(c3ccccc3c1)OCCCc1c(C(=O)O)n(C)c3c-2c(Cl)ccc13 [AZD5991] (first compound max 1 µM, 7x7, partner max 1 µM) | 0.612 | 0.13 | 0.107 | 0.35 | 0.228 | 0.308 | 0.465 | 0.43 | 0.426 | 0.361 | 0.291 | 0.976 | 0.366 | 0.301 | 0.173 | 0.577 | 0.174 | 0.216 | 0.802 | 0.148 |
